{"source": "patent US20240091203A1", "about": "“METHODS FOR TREATING NON-OBSTRUCTIVE HYPERTROPHIC CARDIOMYOPATHY” (Cytokinetics, Incorporated, priority 2022, published 2024)", "test_system": "healthy adults", "parameters": "species or system human", "details": "in vivo", "description": "Study Overview and Ethics. The study used a randomized, placebo-controlled, single-ascending dose (SAD) and multiple-ascending dose (MAD) design (FIG. 2). […] Dose escalation was to be stopped when this range was achieved, or when a non-tolerated dose was identified, if earlier.\nParticipants and Treatments. To be eligible for this study, participants were to be healthy adults aged 18 to 55 years, with body mass index of 18.0 to 32.0 kg/m^2, normal electrocardiogram (ECG) and clinical laboratory values, or only minor abnormalities that were deemed not clinically significant. Participants also had to have normal cardiac structure and function, with LVEF ≥60% for the first 4 SAD cohorts, ≥65% for subsequent SAD cohorts, all MAD cohorts, and the food-effect cohort, and ≥55% for the CYP2D6-PM cohort. Before the study, participants were not allowed to use any prescription medication within 14 days, over-the-counter medication within 7 days (except acetaminophen), or tobacco or nicotine within 3 months; in addition, they were not permitted to consume alcohol, caffeine, or grapefruit within 48 h before study check-in.\nA randomization schedule was centrally generated for each cohort and treatment period. […] Study drug was administered following an overnight fast, except during the fed period in the food-effect cohort.\nSingle-ascending dose (SAD) cohorts. The SAD portion of the study used a randomized, double-blind, placebo-controlled, sequential, escalating-dose design, in which participants received single-ascending oral doses of the study drug. Seven cohorts were dosed in sequence (FIG. 2).\nRecommendations regarding dose escalation in the SAD cohorts—and in the MAD cohorts described below—were made by the treating investigator (who was blinded to treatment group) and endorsed or not by the Dose Level Review Committee (DLRC), who were unblinded. […] Criteria for escalation included that no more than 2 participants in a dose group developed an LVEF <50% and no individual developed an LVEF <45%.\nMultiple-ascending dose (MAD) cohorts. The MAD cohorts also used a randomized, double-blind, placebo-controlled, sequential design.\nCYP2D6 genotypes were determined at screening for all study participants; those identified as CYP2D6-PMs were excluded from the SAD and MAD cohorts but were invited to participate in the CYP2D6-PM cohort. The first individual in the CYP2D6-PM cohort was dosed after the SAD 25-mg cohort (FIG. 2). […] Nine participants were randomized (7:2) with a sentinel dosing group consisting of the first 2 participants treated.\nFood-effect cohort. […] Participants were randomized in a 1:1 ratio to 1 of 2 sequences: fasted/fed or fed/fasted.\nSafety and tolerability. Safety was assessed by the incidence of adverse events (AEs) and by incidence of reduced LVEF. Treatment-emergent AEs (TEAE) were defined as AEs that began or increased after study drug administration. All AEs were coded using the Medical Dictionary for Regulatory Activities version 21.1 and graded using the National Cancer Institute Common Terminology Criteria for AEs (version 4.03) 5-point severity scale. Each AE was judged as either related or unrelated to the study drug by the treating investigator. Clinical laboratory tests were obtained at regular intervals in all cohorts.\nFor safety monitoring, participants in all cohorts had periodic echocardiograms, which were assessed by a cardiologist. In the SAD and MAD cohorts, echocardiograms were also reviewed by an echocardiography core laboratory for PD assessments, as described below. In addition, participants in all cohorts were monitored with continuous 12-lead ECG recording using Holter monitors. For safety monitoring, a single 12-lead ECG was extracted at screening, pre-dose, and periodically throughout follow-up, and interpreted by the investigator. […]", "note": "Where two headings read alike, the source gives them in different places.", "data": [{"smiles": "CCc1nc(-c2ccc3c(c2)CC[C@H]3NC(=O)c2cnn(C)c2)no1", "note": "[aficamten, (R)—N-(5-(5-ethyl-1,2,4-oxadiazol-3-yl)-2,3-dihydro-1H-inden-1-yl)-1-methyl-1H-pyrazole-4-carboxamide]", "values": [{"measurement": "Echocardiogram-related AE of decreased ejection fraction <45%: Onset (time after drug dose)", "setting": "female, human", "value": 1.4, "unit": "h"}, {"measurement": "QTcF", "setting": "human", "value": "≤ 450", "unit": "ms"}, {"measurement": "increase in QTcF interval", "setting": "human", "value": "≤ 30", "unit": "ms"}, {"measurement": "participants with echocardiogram-related AEs of decreased ejection fraction <45%", "setting": "human", "value": 3, "unit": "participants"}, {"measurement": "time to resolution of echocardiogram-related AEs of decreased ejection fraction", "setting": "human", "value": "2.5 to 4.6", "unit": "h"}, {"measurement": "LVEF of 1 participant after cohort expansion", "value": "< 45", "unit": "%"}, {"measurement": "decrease in LVEF of 1 participant after cohort expansion", "value": "> 15", "unit": "%"}, {"measurement": "discontinuation of the study due to AEs", "value": "no participants discontinued"}, {"measurement": "mean safety ECG parameters", "value": "within normal limits"}, {"measurement": "post-dose LVEF of sentinel participant", "value": "< 45", "unit": "%"}, {"measurement": "post-dose LVEF of the participant with LVEF <50%", "value": 46.2, "unit": "%"}, {"measurement": "serum chemistry, hematology, or urinalysis findings", "value": "No clinically significant"}, {"measurement": "vital signs", "value": "within normal limits"}, {"measurement": "Echocardiogram-related AE of decreased ejection fraction <45%: Onset (time after drug dose)", "setting": "male, human", "value": 1.5, "unit": "h"}]}]}
